Test results from US20230304097A1, “PREDICTING CANCER RELAPSE AND TREATMENT OF CANCER DISEASES” (priority 2020, published 2023).
Entries after “also recorded” stand apart in the source; their conditions may differ.

Columns and labels:
[1] = test system: GTS cells; assay: Drug treatment and proliferation assay (Resazurin/Alamar blue), recurrent tumor cells; type: cell-based, mouse
Description: Tumor cells (GTML, GTS and preGTS) were isolated as previously described from tumor bearing mice (Cancer Cell 2012, 21: 601-613) and cultured as neurospheres in serum-free conditions with Neurobasal (NB) media, additional B27 supplement, 100 units Penicillin and 0.1 mg/ml Streptomycin, 2 mM L-glutamine, 1:500 Antibiotic-Antimycotic, 20 ng/ml EGF and 20 ng/ml FGF-2. Human MB002 primary cell culture was obtained from Dr. Yoon Jae-Cho and cultured in serum-free conditions, 1:1 of Neurobasal Media (-vitamin A) and DMEM/F12 with Sodium Pyruvate, NEAA, HEPES, GlutaMAX, 100 units Penicillin and 0.1 mg/ml Streptomycin, B27 supplement, 20 ng/ml EGF and 20 ng/ml FGF-2, 1X LIF and 1X Heparin as previously described Clin Cancer Res 2014, 20: 912-925. Stable doxycycline-inducible SOX9wt and SOX9CPD mutant cell lines were generated as described (EMBO J 2016, 35: 2192-2212), lentiviruses were first packed in HEK293T cells by the specified pTRIPZ lentivector with the packaging plasmids, psPAX2 and pMD2.G. Supernatants containing viral particles (48 - 96 hours post transfection) were used to infect the target cells in the presence of freshly added hexadimethrine bromide ([…]). Seventy-two hours post-transfection, the cells were selected and maintained in appropriate culture medium containing puromycin (0.125 - 0.5 µg/mL).
To assess cell proliferation, 10 000 cells were plated in triplicates in 96-well plate. Proliferation was measured every 24 h for five days using Resazurin colorimetric assay. […] ThioTEPA was dissolved in DMSO and added similarly to a final concentration of 10-100 µM. Doxorubicin was dissolved in H2O and added to a final concentration of 100-120 nM. Spheres from pre-GT20 cells were treated with Cisplatin at a final concentration of 10 µM. Number of SOX9-positive cells per spheres was counted in 10 spheres in treated (Cisplatin) and untreated (DMSO) conditions. Statistical significance was calculated using a unpaired non-parametric Mann-Whitney test.

[2] = test system: GTML2 and GTML3 cerebellar allografts; assay: Survival of Nude mice allografted with GTML cell lines after dox diet (minimal residual disease); type: in vivo, mouse; conditions: 7 days of dox treatment
Description: Injections of tumor cells into mouse brains were performed as thoroughly described elsewhere (Cancer Cell 2016, 29: 311-323; Cancer Cell 2012, 21: 601-613) and as follows. For allograft and in vivo transplantation studies, adult Nude mice were anesthetized and cerebellar allografts generated by injection of 100,000 cells into the cerebellum. Mice were monitored until phenotypic presentation of a brain tumor, at which point they were euthanized. At sacrifice, whole brains were excised and biopsies taken for experimental procedures. PDX models used included BT084 (metastatic SHH MB established in Dr. Till Milde’s lab, Heidelberg, Germany), Med-211FH, Med-411FH (metastatic Group 3 MBs established in Dr. Jim Olson’s lab, Seattle, USA) and ICb-1572MB (metastatic Group 3 MB established in Dr. Xiaonan Li’s lab, Houston, USA) all obtained from Dr. Robert Wechsler-Reya’s lab and used as described elsewhere (Cancer Cell 2016, 29: 311-323). Orthotopic PDX growth was studied in brain and spinal cord in NSG mice that were maintained in the animal facilities at Sanford Burnham Prebys Medical Discovery Institute (SBP) and at the Sanford Consortium for Regenerative Medicine. […]
All animal experiments were conducted once. Animal survival was graphically shown as a Kaplan Meier curve, made and assessed using GraphPad Prism 7 software. The p-value for survival curves is calculated using a LogRank test.

[3] = test system: GTML-pSOX9-GFP cells; assay: FACS quantification of GFP (SOX9)-positive cells after cisplatin treatment; type: cell-based, mouse; conditions: 24 h treatment
Description: Tumor burdened GTML;SOX9-eGFP mice were sacrificed and tumors dissociated, cells cultured as we described above. Cells were harvested, accutased and filtered with 30 µm cell strainer, then sorted for GFP-positive (SOX9) cells (488_FITC-A) and GFP-negative cell population. For cisplatin treatment experiment, cells were treated with cisplatin 24 h before cell sorting. The BD FACSMelody was used for sorting and quantifying in this experiment. MB002-pSOX9-GFP cells were dissociated using accutase and sorted for GFP expression (488_FITC-A). The BD FACSarialll was used for this experiment and it was analyzed using BD FACSDiVa version 8.0.

[4] = test system: pre-GT20 cells; assay: Cisplatin treatment of tumor sphere cultures, SOX9 staining and cell counts; type: cell-based, mouse; conditions: pre-GTS tumor spheres, 10 µM, 72 h in culture
Description: Brains were fixed in 4% PFA and embedded in paraffin block. preGT20 sphere cultures were fixed in 4 % PFA for a minimum of 12 hours at 4° C. and then embedded in HistoGel followed by paraffin embedding. 6-7 µm sections of paraffin-embedded tissue were used for all staining. The complete protocol for the IHC was described previously (Genes & development 2010, 24: 1059-1072).
To assess cell proliferation, 10 000 cells were plated in triplicates in 96-well plate. Proliferation was measured every 24 h for five days using Resazurin colorimetric assay. The MGMT inhibitor Lomeguatrib was dissolved in DMSO and added to cells 24 h post cell plating to a final concentration of 20 µM. ThioTEPA was dissolved in DMSO and added similarly to a final concentration of 10-100 µM. Doxorubicin was dissolved in H2O and added to a final concentration of 100-120 nM. Spheres from pre-GT20 cells were treated with Cisplatin at a final concentration of 10 µM. Number of SOX9-positive cells per spheres was counted in 10 spheres in treated (Cisplatin) and untreated (DMSO) conditions. Statistical significance was calculated using a unpaired non-parametric Mann-Whitney test.

[5] = test system: GTML cells; assay: Drug treatment and proliferation assay (Resazurin/Alamar blue), primary tumor cells; type: cell-based, mouse
Description: Tumor cells (GTML, GTS and preGTS) were isolated as previously described from tumor bearing mice (Cancer Cell 2012, 21: 601-613) and cultured as neurospheres in serum-free conditions with Neurobasal (NB) media, additional B27 supplement, 100 units Penicillin and 0.1 mg/ml Streptomycin, 2 mM L-glutamine, 1:500 Antibiotic-Antimycotic, 20 ng/ml EGF and 20 ng/ml FGF-2. Human MB002 primary cell culture was obtained from Dr. Yoon Jae-Cho and cultured in serum-free conditions, 1:1 of Neurobasal Media (-vitamin A) and DMEM/F12 with Sodium Pyruvate, NEAA, HEPES, GlutaMAX, 100 units Penicillin and 0.1 mg/ml Streptomycin, B27 supplement, 20 ng/ml EGF and 20 ng/ml FGF-2, 1X LIF and 1X Heparin as previously described Clin Cancer Res 2014, 20: 912-925. […]
To assess cell proliferation, 10 000 cells were plated in triplicates in 96-well plate. Proliferation was measured every 24 h for five days using Resazurin colorimetric assay. […] Number of SOX9-positive cells per spheres was counted in 10 spheres in treated (Cisplatin) and untreated (DMSO) conditions. Statistical significance was calculated using a unpaired non-parametric Mann-Whitney test.

[6] = in children and in adults; cited from earlier work

SMILES: COc1cc2ncnc(Nc3ccc(F)c(Cl)c3)c2cc1OCCCN1CCOCC1 [Gefitinib]
- specificity for targeting forebrain GTS cells ([1]; data not shown): not specific for targeting forebrain GTS cells

SMILES: C[C@H]1c2cccc(O)c2C(=O)C2=C(O)[C@]3(O)C(=O)C(C(N)=O)=C(O)[C@@H](N(C)C)[C@@H]3[C@@H](O)[C@@H]21 [dox, doxycycline hyclate]
- overall survival, GTML2 allograft [2]: 16.5 weeks
- overall survival, GTML3 allograft [2]: 9 weeks

SMILES: N.N.[Cl][Pt][Cl] [cisplatin, Cisplatin]
- number of SOX9-positive cells compared to DMSO control ([3]; FACS of GFP-positive cells): increases the number of SOX9-positive cells
- SOX9-positive cells ([3]; GFP-positive cells by FACS, increase from 2.4% (DMSO control)): 8.6%
- cell survival and apoptotic cell death [4]: decreased cell survival and massive apoptotic cell death
- number of SOX9-positive cells surviving the treatment ([4]; vs DMSO): significant upregulation and increase in the number of SOX9-positive cells

SMILES: Nc1nc(OCc2cc(Br)cs2)c2[nH]cnc2n1 [Lomeguatrib]
- proliferation of GTS cells, combination with ThioTEPA ([1]; 10 µM Lomeguatrib added to ThioTEPA (10, 100 µM), 72 h): decreased proliferation of GTS tumor cells even further; also recorded: significantly decreases proliferation
- proliferation of GTS cells ([1]; 20 µM, 24, 48 and 72 h, GT20 and GT21 cell lines): significantly decreased proliferation
- proliferation of GTML cells ([5]; 20 µM, 24, 48 and 72 h, GTML3 and GTML13 cell lines): did not show any efficacy

SMILES: COc1cccc2c1C(=O)c1c(O)c3c(c(O)c1C2=O)C[C@@](O)(C(=O)CO)C[C@@H]3O[C@H]1C[C@H](N)[C@H](O)[C@H](C)O1 [doxorubicin]
- viable fGTS (forebrain recurrence) cells ([1]; 200 nM, 72 h): completely depleted
- viable hGTS (hindbrain recurrence) cells ([1]; 200 nM, 72 h): nearly half of the cells were still viable
- viable GTML cells ([5]; 200 nM, 72 h): nearly half of the cells were still viable

SMILES: CC(C)[C@H](N)C(=O)OCC(CO)OCn1cnc2c(=O)nc(N)[nH]c21 (stereo partly drawn) [ValGCV, valganciclovir]
- blood brain barrier penetration [6]: penetrates the BBB well
- concentration in the cerebrospinal fluid (CSF) [6]: high concentrations
